Pest or weed control data for 13 compounds are collected here from patent US8680012B2, “4-phenyl-pyrane-3,5-diones,4-phenyl-thiopyrane-3,6-diones and cyclohexanetriones as novel herbicides” (Syngenta Crop Protection LLC, priority 2006, dated 2014).

Type in all cases: in vivo
Assay [1] deals with Amaranthus retroflexus (AMARE). The experiment in a line: Example B pre-emergence herbicidal activity, glasshouse pot test. As to conditions: 312 h, rate 250 g/ha, evaluated after 13 days, read-out: Pre-emergence activity AMARE (100=total damage to plant; 0=no damage to plant). As to the method: (§1) Seeds of a variety of test species were sown in standard soil in pots. After cultivation for one day (pre-emergence) or after 8 days cultivation (post-emergence) under controlled conditions in a glasshouse (at 24/16° C., day/night; 14 hours light; 65% humidity), the plants were sprayed with an aqueous spray solution derived from the formulation of the technical active ingredient in acetone/water (50:50) solution containing 0.5% Tween 20 (polyoxyethelyene sorbitan monolaurate, CAS RN 9005-64-5). The test plants were then grown in a glasshouse under controlled conditions in a glasshouse (at 24/16° C., day/night; 14 hours light; 65% humidity) and watered twice daily. After 13 days for pre and post-emergence, the test was evaluated (100=total damage to plant; 0=no damage to plant).
(§2) Alopecurus myosuroides (ALOMY), Avena fatua (AVEFA), Setaria faberi (SETFA), Echinochloa crus-galli (ECHCG), Solanum nigrum (SOLNI) and Amaranthus retroflexus (AMARE)

For assay [2], the system named is Avena fatua (AVEFA). Described as above. The note with it: 312 h, rate 250 g/ha, evaluated after 13 days, read-out: Pre-emergence activity AVEFA (100=total damage to plant; 0=no damage to plant). As to the method:
as §1, §2

In assay [3] the test system is Alopecurus myosuroides (ALOMY). The description is as above. The note with it: 312 h, rate 250 g/ha, evaluated after 13 days, read-out: Pre-emergence activity ALOMY (100=total damage to plant; 0=no damage to plant). As to the method:
as §1, §2

Assay [4] relates to Echinochloa crus-galli (ECHCG). Described as above. As to conditions: 312 h, rate 250 g/ha, evaluated after 13 days, read-out: Pre-emergence activity ECHCG (100=total damage to plant; 0=no damage to plant). Here is the method: as §1, §2
The subject of assay [5] is Setaria faberi (SETFA). The description is as above. As to conditions: 312 h, rate 250 g/ha, evaluated after 13 days, read-out: Pre-emergence activity SETFA (100=total damage to plant; 0=no damage to plant). Here is the method:
as §1, §2

Assay [6] deals with Amaranthus retroflexus (AMARE). In words: Example B post-emergence herbicidal activity, glasshouse pot test. As to conditions: 312 h, rate 250 g/ha, evaluated after 13 days, read-out: Post-emergence activity AMARE (100=total damage to plant; 0=no damage to plant). Here is the method:
as §1, §2

Assay [7] deals with Avena fatua (AVEFA). The assay is described as above. The note with it: 312 h, rate 250 g/ha, evaluated after 13 days, read-out: Post-emergence activity AVEFA (100=total damage to plant; 0=no damage to plant). As to the method: as §1, §2
Assay [8] deals with Alopecurus myosuroides (ALOMY). The description is as above. The note with it: 312 h, rate 250 g/ha, evaluated after 13 days, read-out: Post-emergence activity ALOMY (100=total damage to plant; 0=no damage to plant). Here is the method:
as §1, §2

Assay [9] relates to Echinochloa crus-galli (ECHCG). Described as above. The note with it: 312 h, rate 250 g/ha, evaluated after 13 days, read-out: Post-emergence activity ECHCG (100=total damage to plant; 0=no damage to plant). As to the method:
as §1, §2

Assay [10] relates to Setaria faberi (SETFA). The assay is described as above. As to conditions: 312 h, rate 250 g/ha, evaluated after 13 days, read-out: Post-emergence activity SETFA (100=total damage to plant; 0=no damage to plant). As to the method: as §1, §2

On to `CCc1ccc(-c2cc(F)c(Cl)c(F)c2)cc1C1=C(O)C(C)(C)OC(C)(C)C1=O` [Compound A-152], for which the pest or weed control at 250 g/ha was determined as 0% in assay [1]; 90% in the assay with Avena fatua (AVEFA) [2]; 70% in [3]; 100% in assay [4]; 100% with Setaria faberi (SETFA) [5]; 0% in assay [6]. Moreover, the pest or weed control at 250 g/ha (with Avena fatua (AVEFA) [7]; in [8]; in [9]; in the assay with Setaria faberi (SETFA) [10]) was 100% each time.
On to `CCc1ccc(-c2ccc(C(F)F)cc2)cc1C1=C(O)C(C)(C)OC(C)(C)C1=O` [Compound A-147], for which the pest or weed control at 250 g/ha in [1] turned out to be 0%; with Avena fatua (AVEFA) [2] it was 60%; in assay [3], 100%; in [4], 100%; with Setaria faberi (SETFA) [5], 70%; in assay [6], 0%. In addition, the pest or weed control at 250 g/ha turned out to be 90% in the assay with Avena fatua (AVEFA) [7], 100% in [8], 100% in [9] and 70% in the assay on Setaria faberi (SETFA) [10].
Regarding `CCc1ccc(-c2ccc(Cl)c(Cl)c2Cl)cc1C1=C(O)C(C)(C)OC(C)(C)C1=O` [Compound A-137], the pest or weed control at 250 g/ha in [1] worked out at 0%; with Avena fatua (AVEFA) [2], 90%; in assay [3] it was 70%; in assay [4] it was 100%; in the assay with Setaria faberi (SETFA) [5], 100%; in [6], 30%. In addition, the pest or weed control at 250 g/ha in the assay with Avena fatua (AVEFA) [7] came out at 90%; in assay [8], 90%; in assay [9], 100%; in the assay on Setaria faberi (SETFA) [10], 100%.
For `CCc1ccc(-c2ccc(Cl)c(F)c2)cc1C1=C(O)C(C)(C)SC(C)(C)C1=O` (single isomer, unassigned) [Compound C-5], the pest or weed control at 250 g/ha (in [1]; in the assay on Avena fatua (AVEFA) [2]; in assay [3]; in assay [4]; in the assay on Setaria faberi (SETFA) [5]; in assay [6]) was 0% throughout. Besides, the pest or weed control at 250 g/ha with Avena fatua (AVEFA) [7] was found to be 70%; in assay [8] it was 70%; in assay [9], 100%; with Setaria faberi (SETFA) [10] it was 90%.
With `CCc1ccc(-c2ccc(Cl)cc2C#N)cc1C1=C(O)C(C)(C)OC(C)(C)C1=O` [Compound A-100], the pest or weed control at 250 g/ha amounted to 60% in assay [1]; 90% in the assay on Avena fatua (AVEFA) [2]; 20% in assay [3]; 80% in assay [4]; 100% with Setaria faberi (SETFA) [5]; 0% in assay [6]. Further, the pest or weed control at 250 g/ha was found to be 90% in the assay with Avena fatua (AVEFA) [7], 90% in assay [8], 100% in assay [9] and 100% in the assay on Setaria faberi (SETFA) [10].
Regarding `CCc1ccc(-c2ccc(I)cc2)cc1C1=C(O)C(C)(C)OC(C)(C)C1=O` [Compound A-101], the pest or weed control at 250 g/ha in [1] was 0%; with Avena fatua (AVEFA) [2], 100%; in [3], 70%; in assay [4] it was 100%; in the assay with Setaria faberi (SETFA) [5] it was 100%; in assay [6], 0%. Also, the pest or weed control at 250 g/ha (in the assay with Avena fatua (AVEFA) [7]; in assay [8]; in [9]; in the assay on Setaria faberi (SETFA) [10]) was 100% throughout.
Turning to `CCc1ccc(-c2ccc(Cl)c(Cl)c2F)cc1C1=C(O)C(C)(C)OC(C)(C)C1=O` [Compound A-155], the pest or weed control at 250 g/ha in assay [1] stood at 0%; with Avena fatua (AVEFA) [2] it was 0%; in assay [3], 50%; in [4] it was 100%; in the assay on Setaria faberi (SETFA) [5], 100%; in assay [6], 40%. The pest or weed control at 250 g/ha with Avena fatua (AVEFA) [7] is 90%; in [8], 100%; in assay [9], 100%; with Setaria faberi (SETFA) [10], 100%.
In the case of `CCc1ccc(-c2cc(Cl)c(Cl)cc2Cl)cc1C1=C(O)C(C)(C)OC(C)(C)C1=O` [Compound A-144], the pest or weed control at 250 g/ha was found to be 30% in [1]; 80% in the assay with Avena fatua (AVEFA) [2]; 100% in assay [3]; 90% in assay [4]; 100% with Setaria faberi (SETFA) [5]; 40% in [6]. Also, the pest or weed control at 250 g/ha (in the assay on Avena fatua (AVEFA) [7]; in assay [8]; in assay [9]; in the assay with Setaria faberi (SETFA) [10]) was 100% throughout.
In the case of `CCc1ccc(-c2ccc(Cl)c(F)c2F)cc1C1=C(O)C(C)(C)OC(C)(C)C1=O` [Compound A-153], the pest or weed control at 250 g/ha was found to be 0% in assay [1]; 50% in the assay with Avena fatua (AVEFA) [2]; 60% in assay [3]; 100% in [4]; 100% in the assay with Setaria faberi (SETFA) [5]; 30% in [6]. The pest or weed control at 250 g/ha (in the assay with Avena fatua (AVEFA) [7]; in assay [8]; in [9]; in the assay with Setaria faberi (SETFA) [10]) was 100% throughout.
As for `CCc1ccc(-c2ccc(Cl)cc2Cl)cc1C1=C(OC(C)=O)C(C)(C)OC(C)(C)C1=O` [Compound D-23], the pest or weed control at 250 g/ha is 0% in assay [1]; 0% in the assay on Avena fatua (AVEFA) [2]; 0% in [3]; 100% in [4]; 90% with Setaria faberi (SETFA) [5]; 0% in [6]. Besides, the pest or weed control at 250 g/ha in the assay on Avena fatua (AVEFA) [7] is 0%; in assay [8], 0%; in assay [9], 100%; in the assay on Setaria faberi (SETFA) [10], 90%.
On to `CCc1ccc(-c2cc(Cl)c(Cl)c(Cl)c2)cc1C1=C(O)C(C)(C)OC(C)(C)C1=O` [Compound A-139], for which the pest or weed control at 250 g/ha in assay [1] is 0%; in the assay with Avena fatua (AVEFA) [2], 0%; in assay [3] it was 0%; in assay [4], 30%; in the assay with Setaria faberi (SETFA) [5], 70%; in assay [6], 50%. The pest or weed control at 250 g/ha in the assay with Avena fatua (AVEFA) [7] came out at 50%; in assay [8] it was 30%; in [9] it was 100%; in the assay on Setaria faberi (SETFA) [10] it was 80%.
Turning to `Cc1ccc(-c2cnc(N)nc2)cc1C1=C(O)C(C)(C)OC(C)(C)C1=O` [Compound A-104], the pest or weed control at 250 g/ha (in [1]; with Avena fatua (AVEFA) [2]; in assay [3]; in assay [4]; in the assay with Setaria faberi (SETFA) [5]) was 0% in each case.
Consider `Cc1ccc(-c2cc[n+]([O-])cc2)cc1C1=C(O)C(C)(C)OC(C)(C)C1=O` [Compound A-105], for which the pest or weed control at 250 g/ha (in assay [1]; in the assay with Avena fatua (AVEFA) [2]; in assay [3]; in assay [4]; in the assay on Setaria faberi (SETFA) [5]) was 0% each time.
